Measurements from PubChem BioAssay AID1963967 (Molecular Pharmacology Branch, DTP, NCI, 2024).
Values joined by “and” are separate entries in the source; they are usually repeats but may differ in a detail not shown here. Equal values may be shown once.

Tested on: 855422-203-R-J1-PDC spheroids with HUVEC/MSC, viability
Experiment: Anticancer human tumor 855422-203-R-J1-PDC patient-derived bladder carcinoma cell line growth inhibition [PI3K]
Conditions: for viability, T/C: stronger effect = lower value; active = viability on the fitted dose curve at most 10% of control; inactive = the rest
From the text: Combinatorial screen of targeted agents with the PI3K inhibitors inavolisib, alpelisib, duvelisib, and copanlisib in multi-cell type tumor spheroids
A high-throughput screen of multi-cell type tumor spheroids was designed to identify active combinations of targeted small molecules and PI3K pathway inhibitors. Complex spheroids include a stromal component modeled by human endothelial cells (HUVEC) and fibroblasts modeled by human mesenchymal stem cells (MSCs). The concentration ranges selected for each drug and investigational agent were based upon clinically achievable concentrations if the clinical Cmax of the agent was known.
Compounds. The drugs and investigational agents: inavolisib (NSC800729), alpelisib (NSC765974), duvelisib (NSC772469), copanlisib (NSC816437), ipatasertib (NSC767898), afuresertib (NSC778305), talazoparib (NSC767125), sapanisertib (NSC764658), selumetinib (NSC741078), tovorafenib (DAY101, NSC766906), vemurafenib (NSC761431), ravoxertinib (NSC781343), sotorasib (NSC818433), MRTX1133 (NSC 836407), abemaciclib (NSC 768073), palbociclib (NSC758247), venetoclax (NSC 766270), SY5609 (NSC837396), enzalutamide (NSC755605), and darolutamide (NSC825331), were obtained from the National Cancer Institute (NCI) Developmental Therapeutics Program Chemical Repository. The FDA-approved anticancer drug set is available from the NCI Developmental Therapeutics Program. […] The stock solutions were prepared in dimethyl sulfoxide (DMSO, Sigma-Aldrich, St. Louis, MO, cat. D2650) at 800-fold the tested concentration and stored at -70 degrees C prior to their use. All drugs and investigational agents were tested over a range starting from a high concentration at or near the clinical Cmax and decreasing in half-log increments. If the clinical Cmax for an agent had not been determined, the highest concentration tested was 10 microM.
Cell Culture. All cells were maintained in an incubator at 37 degrees C and 5% CO2 with 95% humidity. The PDC lines were cultured according to standard operating procedures established by the NCI PDMR (https://pdmr.cancer.gov/sops/default.htm). All PDCs were thawed and cultured in Matrigel-coated flasks prepared with a working solution of 1X Ham's F-12 nutrient mix, without supplementation (Invitrogen, Waltham, MA, cat. 11765054), 100 U/mL penicillin-streptomycin (Invitrogen, cat. 15140122), and 2.5% Matrigel (Corning Inc., Corning, NY, cat. 354248) for the first three passages. The 354836-022-R-J1-PDC, 475296-252-R-J1-PDC, and 997726-040-R-J2-PDC lines were cultured in 6A media, which includes advanced DMEM/F-12 (Thermo Fisher Scientific, cat. 12634028), 10 mM HEPES (Thermo Fisher Scientific, cat. 15630080), 1X GlutaMAX supplement (Thermo Fisher Scientific, cat. 35050061), 0.1 mg/mL primocin (InvivoGen, San Diego, CA, cat. ant-pm-2), 10% defined fetal bovine serum, heat inactivated (HyClone Laboratories Inc., Logan, UT, cat. SH30070.03HI), 50% L-WRN conditioned media (ATCC, cat. CRL-3276), 1.25 mM N-Acetyl-L-cysteine (Sigma-Aldrich, cat. A9165), 10 mM nicotinamide (Sigma-Aldrich, cat. N0636), 1X B-27 supplement (Thermo Fisher Scientific, cat. 17504044), 1X N-2 supplement (Thermo Fisher Scientific, cat. 17502048), and 10 microM Y-27632 dihydrochloride (Tocris Bioscience, Bristol, United Kingdom, cat. 1254). The 624824-186-R-J2-PDC line was cultured in 6C/Colon 1B media, which includes all 6A media components plus 50 ng/mL human EGF recombinant protein (Thermo Fisher Scientific, cat. PHG0311). […]

[1] = curve of first compound, second compound 0.0316 µM
[2] = curve of first compound, second compound 0.1 µM
[3] = curve of first compound, second compound 0.316 µM
[4] = curve of first compound, second compound 1 µM
[5] = curve of first compound, second compound 3.16 µM
[6] = curve of first compound, second compound 10 µM
[7] = second compound 0.0316 µM, first compound 0.0316 µM
[8] = second compound 0.0316 µM, first compound 0.1 µM
[9] = second compound 0.0316 µM, first compound 0.316 µM
[10] = second compound 0.0316 µM, first compound 1 µM
[11] = second compound 0.0316 µM, first compound 3.16 µM
[12] = second compound 0.0316 µM, first compound 10 µM
[13] = second compound 0.1 µM, first compound 0.0316 µM
[14] = second compound 0.1 µM, first compound 0.1 µM
[15] = second compound 0.1 µM, first compound 0.316 µM
[16] = second compound 0.1 µM, first compound 1 µM
[17] = second compound 0.1 µM, first compound 3.16 µM
[18] = second compound 0.1 µM, first compound 10 µM
[19] = second compound 0.316 µM, first compound 0.0316 µM
[20] = second compound 0.316 µM, first compound 0.1 µM
[21] = second compound 0.316 µM, first compound 0.316 µM
[22] = second compound 0.316 µM, first compound 1 µM
[23] = second compound 0.316 µM, first compound 3.16 µM
[24] = second compound 0.316 µM, first compound 10 µM
[25] = second compound 1 µM, first compound 0.0316 µM
[26] = second compound 1 µM, first compound 0.1 µM
[27] = second compound 1 µM, first compound 0.316 µM
[28] = second compound 1 µM, first compound 1 µM
[29] = second compound 1 µM, first compound 3.16 µM
[30] = second compound 1 µM, first compound 10 µM
[31] = second compound 3.16 µM, first compound 0.0316 µM
[32] = second compound 3.16 µM, first compound 0.1 µM
[33] = second compound 3.16 µM, first compound 0.316 µM
[34] = second compound 3.16 µM, first compound 1 µM
[35] = second compound 3.16 µM, first compound 3.16 µM
[36] = second compound 3.16 µM, first compound 10 µM
[37] = second compound 10 µM, first compound 0.0316 µM
[38] = second compound 10 µM, first compound 0.1 µM
[39] = second compound 10 µM, first compound 0.316 µM
[40] = second compound 10 µM, first compound 1 µM
[41] = second compound 10 µM, first compound 3.16 µM
[42] = second compound 10 µM, first compound 10 µM
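Also: agents incubated with spheroids for one week before read-out.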
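For viability, T/C in this document: 100% = DMSO vehicle-treated control wells.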

CNC(=O)c1ccc(N2C(=S)N(c3ccc(C#N)c(C(F)(F)F)c3)C(=O)C2(C)C)cc1F + Cc1nc(NC(=O)N2CCCC2C(N)=O)sc1-c1ccnc(C(C)(C)C(F)(F)F)c1
31.6 nM: IC50 [5]
inactive: viability, T/C [7] 109% | viability, T/C [8] 95.3% | viability, T/C [9] 99.1% | viability, T/C [10] 87.4% | viability, T/C [11] 80.7% | viability, T/C [12] 74.5% | viability, T/C [13] 99.7% | viability, T/C [14] 97.8% | viability, T/C [15] 96.7% | viability, T/C [16] 84.8% | viability, T/C [17] 88.1% | viability, T/C [18] 79% | viability, T/C [19] 98.1% | viability, T/C [20] 83.3% | viability, T/C [21] 96.7% | viability, T/C [22] 87.6% | viability, T/C [23] 86.8% | viability, T/C [24] 77.4% | viability, T/C [25] 72.5% | viability, T/C [26] 75.7% | viability, T/C [27] 73.7% | viability, T/C [28] 76.8% | viability, T/C [29] 82.5% | viability, T/C [30] 61.8% | viability, T/C [31] 47.4% | viability, T/C [32] 49.6% | viability, T/C [33] 44.6% | viability, T/C [34] 51.5% | viability, T/C [35] 54.1% | viability, T/C [36] 36.7% | viability, T/C [37] 24.1% | viability, T/C [38] 27.6% | viability, T/C [39] 24.7% | viability, T/C [40] 31.2% | viability, T/C [41] 29.4% | viability, T/C [42] 16.8%
< 31.6 nM: IC50 [6]
> 10000 nM: IC50 [1] | IC50 [2] | IC50 [3] | IC50 [4]

CC(Cn1ccc(-c2ccc(C#N)c(Cl)c2)n1)NC(=O)c1cc(C(C)O)[nH]n1 (centres undefined) + Cc1nc(NC(=O)N2CCCC2C(N)=O)sc1-c1ccnc(C(C)(C)C(F)(F)F)c1
> 10000 nM: IC50 [1] | IC50 [2] | IC50 [3] | IC50 [4]
inactive: viability, T/C [7] 110% | viability, T/C [8] 87.1% | viability, T/C [9] 114% | viability, T/C [10] 102% | viability, T/C [11] 102% | viability, T/C [12] 87.5% | viability, T/C [13] 104% | viability, T/C [14] 94.6% | viability, T/C [15] 105% | viability, T/C [16] 91.6% | viability, T/C [17] 98.5% | viability, T/C [18] 89.2% | viability, T/C [19] 91.2% | viability, T/C [20] 88.2% | viability, T/C [21] 94.4% | viability, T/C [22] 89.6% | viability, T/C [23] 98.1% | viability, T/C [24] 86.7% | viability, T/C [25] 71.7% | viability, T/C [26] 76.7% | viability, T/C [27] 73.9% | viability, T/C [28] 77.8% | viability, T/C [29] 81.3% | viability, T/C [30] 62.3% | viability, T/C [31] 44.9% | viability, T/C [32] 45% | viability, T/C [33] 48.5% | viability, T/C [34] 46.5% | viability, T/C [35] 49.9% | viability, T/C [36] 37% | viability, T/C [37] 24.4% | viability, T/C [38] 22.5% | viability, T/C [39] 22% | viability, T/C [40] 26.9% | viability, T/C [41] 28% | viability, T/C [42] 17.4%
< 31.6 nM: IC50 [5] | IC50 [6]

CC1(C)CCC(Nc2ncc(C(F)(F)F)c(-c3c[nH]c4c(P(C)(C)=O)c(C#N)ccc34)n2)CN1 (centres undefined)
inactive: viability, T/C (compound 0.0316 µM) 29.6% [middle of 4 runs] | viability, T/C (compound 0.1 µM) 25% [middle of 4 runs] | viability, T/C (compound 0.316 µM) 27.7% [middle of 4 runs] | viability, T/C (compound 1 µM) 30.7% [middle of 4 runs] | viability, T/C (compound 3.16 µM) 28.9% [middle of 4 runs] | viability, T/C (compound 10 µM) 5.48% [middle of 4 runs]
< 31.6 nM: IC50 (curve of compound)

CC(C)NCC(C(=O)N1CCN(c2ncnc3c2C(C)CC3O)CC1)c1ccc(Cl)cc1 (centres undefined) + COc1c(OCCCN2CCOCC2)ccc2c3n(c(=NC(=O)c4cnc(N)nc4)nc12)CCN3
1920 nM: IC50 (curve of first compound, second compound 0.01 µM)
< 31.6 nM: IC50 [2] | IC50 [3] | IC50 [4]
active: viability, T/C [18] 6.96% | viability, T/C [21] 11.4% | viability, T/C [22] 10.5% | viability, T/C [23] 6% | viability, T/C [24] 3.59% | viability, T/C [25] 5.39% | viability, T/C [26] 4.74% | viability, T/C [27] 4.07% | viability, T/C [28] 4.44% | viability, T/C [29] 2.79% | viability, T/C [30] 1.58%
969 nM: IC50 [1]
1130 nM: IC50 (curve of first compound, second compound 0.00316 µM)
inactive: viability, T/C (second compound 0.00316 µM, first compound 0.0316 µM) 108% | viability, T/C (second compound 0.00316 µM, first compound 0.1 µM) 62% | viability, T/C (second compound 0.00316 µM, first compound 0.316 µM) 71.9% | viability, T/C (second compound 0.00316 µM, first compound 1 µM) 57.4% | viability, T/C (second compound 0.00316 µM, first compound 3.16 µM) 41% | viability, T/C (second compound 0.00316 µM, first compound 10 µM) 18.8% | viability, T/C (second compound 0.01 µM, first compound 0.0316 µM) 79% | viability, T/C (second compound 0.01 µM, first compound 0.1 µM) 73.3% | viability, T/C (second compound 0.01 µM, first compound 0.316 µM) 67% | viability, T/C (second compound 0.01 µM, first compound 1 µM) 62% | viability, T/C (second compound 0.01 µM, first compound 3.16 µM) 42% | viability, T/C (second compound 0.01 µM, first compound 10 µM) 15.5% | viability, T/C [7] 63.3% | viability, T/C [8] 64.3% | viability, T/C [9] 55.6% | viability, T/C [10] 51.3% | viability, T/C [11] 23% | viability, T/C [12] 12.6% | viability, T/C [13] 30.3% | viability, T/C [14] 30.1% | viability, T/C [15] 35.3% | viability, T/C [16] 24.7% | viability, T/C [17] 15.5% | viability, T/C [19] 11.1% | viability, T/C [20] 10.8%

CCN1CCN(Cc2ccc(Nc3ncc(F)c(-c4cc(F)c5nc(C)n(C(C)C)c5c4)n3)nc2)CC1
inactive: viability, T/C (compound 0.00316 µM) 111% [middle of 4 runs] | viability, T/C (compound 0.0316 µM) 107% [middle of 4 runs] | viability, T/C (compound 0.1 µM) 83.3% [middle of 4 runs] | viability, T/C (compound 0.316 µM) 71.9% and 69.7% (2×) and 83.9% | viability, T/C (compound 1 µM) 60.2% [middle of 4 runs]
> 1000 nM: IC50 (curve of compound)
